Reference: patent US20230089557A1, “METHODS OF TREATING DLBCL USING BTK INHIBITORS AND COMBINATIONS THEREOF” (BEIGENE SWITZERLAND GMBH, priority 2020, published 2023)

Test system: R/R non-GCB DLBCL
Experiment: Four Compound 1 studies pooled (monotherapy and combination), response by BCL2/MYC expression
Format: in vivo, human
Conditions: for BOR / BOR (responders/patients) / OS / PFS: mono- and combination therapies pooled; for overall survival / progression-free survival / ORR / ORR (responders/patients): two monotherapies and two combination therapies
Experimental: A total of 121 patients with R/R non-GCB DLBCL were recruited in four Compound 1 treatment studies that were conducted at a similar time period. Two of the four studies were Compound 1 monotherapy (n=79) and two were Compound 1 combined with an anti-CD20 antibody therapy (n=42). Similar inclusion and exclusion criteria and response evaluation criteria were used across all studies. Fifty-six non-GCB patients were further subtyped by gene expression profiling (GEP) using the HTG EdgeSeq DLBCL Cell of Origin Assay. The expression of approximately 90 lymphoma-associated genes from the HTG GEP assay were analyzed by R package limma for correlation with response to Compound 1 treatment. Seventy-seven patient samples were tested by next-generation sequencing (NGS) with a panel of genes. Chi-square test was used to evaluate the correlation between mutations and the objective response rate (ORR).
Monotherapy schedule 1: Compound 1 was administered orally every day at 160 mg twice daily (BID) in 28-day cycles in patients with R/R non-GCB DLBCL
Monotherapy schedule 2: Compound 1 was administered orally every day in each cycle at 160 mg BID in 28-day cycles in patients with R/R non-GCB DLBCL.
Combination therapy schedule 1: Compound 1 was administered orally every day in each cycle at 160 mg BID in 28-day cycles, in combination with obinutuzumab, in patients with R/R non-GCB DLBCL. Obinutuzumab was administered for up to 6 cycles consistent with the U.S. label regimen (100 mg at Day 1 Cycle 1, 1000 mg at Day 8 and Day 15, 900 mg at Day 2 Cycle 1 followed by 1000 mg on day one of cycles 2-6).
Combination therapy schedule 2: Compound 1 was administrated orally every day in each cycle at 160 mg BID in 28-day cycles, in combination with rituximab, in patients with R/R non-GCB DLBCL. And, rituximab was administered at 375 mg/m2 intravenously on Cycle 1 Days 1, 8, 15, 22, and on Day 1 of Cycles 4, 6, 8, 10. Compound 1 was administered at least 30 minutes prior to the initiation of the rituximab infusion.
A total of 121 patients with non-GCB DLBCL were included for response evaluation. 79 patients were subjected to Compound 1 monotherapies (Monotherapy Schedule 1 or 2), and 42 patients were subjected to Compound 1 plus anti-CD20 antibody Combination therapy (Combination therapy schedule 1 or 2).
56 non-GCB patients were further subtyped by gene expression profiling (GEP) using the HTG EdgeSeq DLBCL Cell of Origin Assay. The expression of approximately 90 lymphoma-associated genes from the HTG GEP assay were analyzed by R package limma for correlation with response to zanubrutinib treatment.

[1] = MYC and BCL2 double expressor (DE) patients

C=CC(=O)N1CCC([C@@H]2CCNc3c(C(N)=O)c(-c4ccc(Oc5ccccc5)cc4)nn32)CC1 [Compound 1, (S)-7-(1-acryloylpiperidin-4-yl)-2-(4-phenoxyphenyl)-4,5,6,7-tetra-hydropyrazolo[1,5-a]pyrimidine-3-carboxamide]
BOR (BCL2-high patients): 57% | BOR (responders/patients) (BCL2-high patients): 16/28 | OS (BCL2-high patients): 10 m | PFS (BCL2-high patients): 5.3 m | BOR (BCL2-low patients): 21% | BOR (responders/patients) (BCL2-low patients): 6/28 | OS (BCL2-low patients): 6 m | PFS (BCL2-low patients): 2.8 m | overall survival (DE patients): 10 months | progression-free survival (DE patients): 5.4 months | ORR [1]: 61% | ORR (responders/patients) [1]: 11/18 | BOR (MYC-high patients): 46% | BOR (responders/patients) (MYC-high patients): 13/28 | OS (MYC-high patients): 10 m | PFS (MYC-high patients): 5.4 m | BOR (MYC-low patients): 32% | BOR (responders/patients) (MYC-low patients): 9/28 | OS (MYC-low patients): 7 m | PFS (MYC-low patients): 2.9 m | ORR (non-DE patients): 29% | ORR (responders/patients) (non-DE patients): 11/38 | overall survival (non-DE patients): 7 months | progression-free survival (non-DE patients): 3.6 months
